pIC50: −log10 of the molar value. Counter-ions that a name gives are not always drawn. Like-named read-outs stand apart in the source and are kept apart here.
Tests used:
PARP-1 enzyme [1] = target: PARP-1 enzyme (Cricetulus griseus (Chinese hamster) (Cricetulus barabensis griseus), UniProt Q9R152); test: Intracellular PARP inhibitory activity (NAD(P)H released by MMS-treated CHO-K1 cells); type: cell-based
Method: In order to verify the ability of the compounds of the present invention to inhibit the PARP-1 enzyme activity, the amount of NAD(P)H accumulated on cell culture medium was measured.
The Chinese hamster ovary cells (CHO-K1) were cultured in RPMI1640 culture medium containing 10% fetal bovine serum (FBS). The cultured CHO-K1 cells were seeded into 96 well plate by 2.9×10^3 cells/well, and cultured for 16 hours under culture condition of 37° C., 5% CO2. After the culture, the cells were treated with the compounds of the Examples at varying concentrations, and cultured at 37° C. for 2 hours. […] The amount of […] released to the culture medium 3, 4, 5 hours after the treatment with MMS was quantified at 450 nm using Wallac EnVision™ (PerkinElmer Oy, Turku, Finland). The transference numbers of the compounds at varying concentrations according to the present invention are the average values obtained from four wells, and the results were calculated using regression analysis.
The Chinese hamster ovary cells (CHO-K1) were treated with the compounds at varying concentration according to the present invention, and the amount of NAD(P)H released into the culture medium 4 hours after the MMS treatment was quantified.

PARP-1 enzyme [2] = target: PARP-1 enzyme (Homo sapiens (Human), UniProt P09874); test: Poly(ADP-ribose)polymerase [PARP-1] enzyme inhibitory activity (Trevigen PARP Assay kit); type: biochemical; conditions: read-out: PARP-1 Inhibitory activity IC50
PARP-1 enzyme (Homo sapiens (Human), UniProt P09874), sequence (P09874 whole entry): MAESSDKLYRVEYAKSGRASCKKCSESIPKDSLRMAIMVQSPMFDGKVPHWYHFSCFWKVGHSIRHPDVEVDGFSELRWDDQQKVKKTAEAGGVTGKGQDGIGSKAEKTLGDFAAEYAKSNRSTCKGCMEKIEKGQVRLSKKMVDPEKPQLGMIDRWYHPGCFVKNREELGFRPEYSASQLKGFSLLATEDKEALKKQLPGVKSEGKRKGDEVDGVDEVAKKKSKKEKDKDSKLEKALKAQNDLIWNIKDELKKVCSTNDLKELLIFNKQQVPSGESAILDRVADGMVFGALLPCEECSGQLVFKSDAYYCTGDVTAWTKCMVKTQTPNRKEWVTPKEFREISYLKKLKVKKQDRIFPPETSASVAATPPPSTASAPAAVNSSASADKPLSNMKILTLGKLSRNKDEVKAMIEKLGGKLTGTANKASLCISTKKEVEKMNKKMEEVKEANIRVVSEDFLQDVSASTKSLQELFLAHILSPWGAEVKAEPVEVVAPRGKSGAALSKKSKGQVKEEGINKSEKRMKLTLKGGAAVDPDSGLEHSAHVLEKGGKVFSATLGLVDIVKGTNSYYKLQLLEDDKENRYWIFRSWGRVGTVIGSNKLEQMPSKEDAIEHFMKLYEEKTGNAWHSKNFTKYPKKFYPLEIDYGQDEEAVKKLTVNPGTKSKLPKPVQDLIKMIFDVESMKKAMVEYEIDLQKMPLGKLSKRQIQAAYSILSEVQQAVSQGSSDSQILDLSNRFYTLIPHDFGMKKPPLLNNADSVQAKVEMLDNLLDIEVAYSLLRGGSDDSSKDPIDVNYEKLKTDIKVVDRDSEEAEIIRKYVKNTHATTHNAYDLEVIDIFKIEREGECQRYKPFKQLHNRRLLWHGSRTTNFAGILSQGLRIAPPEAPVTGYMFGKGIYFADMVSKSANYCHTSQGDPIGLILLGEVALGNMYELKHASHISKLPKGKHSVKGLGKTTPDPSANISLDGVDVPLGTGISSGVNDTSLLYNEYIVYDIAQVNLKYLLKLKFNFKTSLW
Method: The activity of the compounds according to the present invention to inhibit the PARP-1 enzyme was examined using a PARP Assay kit (4671-096-K) purchased from Trevigen. The assay was performed following a modified previously reported method by Lee et al [Methods Find, Exp. Clin. Pharmacol., 27, 617-622, 2005].
Histone was coated on 384-well plate, which is a small volume PS plate (784101) of Greiner Bio-One, and left at 25° C. for 2 hours. After that, the plate was rinsed four times with PBS (7.5 mM Na2HPO4, 2.5 mM NaH2PO4, 145 mM NaCl, pH 7.4), and in order to prevent non-specific reaction, the Strep-diluent (provided from kit of Trevigen) was added and left at 25° C. for one hour. After one hour, the plate was again rinsed with PBS four times, and the compounds of the Examples in various concentrations were put into reactant containing PARP-1 enzyme (0.12 unit/well), 2×PARP cocktail (1.95 mM NAD^+, 50 uM biotinylated NAD^+, and activated DNA in 50 mM Tris pH 8.0, 25 mM MgCl2) and allowed to react at 25° C. for 30 minutes. After 30 minutes, each well was rinsed with PBS four times, and in order to measure the amount of rybosylation by the PARP enzyme, strepavidin-linked peroxidase (Strep-HRP, 1:1000 diluted) was added and allowed to react at 37° C. for 30 minutes. The plate was rinsed with PBS four times, and TACS-Sapphire substrate was put and allowed to react at 25° C. for 10 minutes so that color reaction occurred. Finally, the reaction was terminated by the addition of 0.2 N HCl. The amount of histone ribosylation formed by PARP-1 enzyme was quantified at 450 nm using Wallac EnVision™ (PerkinElmer Oy, Turku, Finland).

[3] = PARP-1 enzyme, histone ribosylation, 450 nm

PARP-1 enzyme (Cricetulus griseus (Chinese hamster) (Cricetulus barabensis griseus), UniProt Q9R152), sequence (Q9R152 whole entry): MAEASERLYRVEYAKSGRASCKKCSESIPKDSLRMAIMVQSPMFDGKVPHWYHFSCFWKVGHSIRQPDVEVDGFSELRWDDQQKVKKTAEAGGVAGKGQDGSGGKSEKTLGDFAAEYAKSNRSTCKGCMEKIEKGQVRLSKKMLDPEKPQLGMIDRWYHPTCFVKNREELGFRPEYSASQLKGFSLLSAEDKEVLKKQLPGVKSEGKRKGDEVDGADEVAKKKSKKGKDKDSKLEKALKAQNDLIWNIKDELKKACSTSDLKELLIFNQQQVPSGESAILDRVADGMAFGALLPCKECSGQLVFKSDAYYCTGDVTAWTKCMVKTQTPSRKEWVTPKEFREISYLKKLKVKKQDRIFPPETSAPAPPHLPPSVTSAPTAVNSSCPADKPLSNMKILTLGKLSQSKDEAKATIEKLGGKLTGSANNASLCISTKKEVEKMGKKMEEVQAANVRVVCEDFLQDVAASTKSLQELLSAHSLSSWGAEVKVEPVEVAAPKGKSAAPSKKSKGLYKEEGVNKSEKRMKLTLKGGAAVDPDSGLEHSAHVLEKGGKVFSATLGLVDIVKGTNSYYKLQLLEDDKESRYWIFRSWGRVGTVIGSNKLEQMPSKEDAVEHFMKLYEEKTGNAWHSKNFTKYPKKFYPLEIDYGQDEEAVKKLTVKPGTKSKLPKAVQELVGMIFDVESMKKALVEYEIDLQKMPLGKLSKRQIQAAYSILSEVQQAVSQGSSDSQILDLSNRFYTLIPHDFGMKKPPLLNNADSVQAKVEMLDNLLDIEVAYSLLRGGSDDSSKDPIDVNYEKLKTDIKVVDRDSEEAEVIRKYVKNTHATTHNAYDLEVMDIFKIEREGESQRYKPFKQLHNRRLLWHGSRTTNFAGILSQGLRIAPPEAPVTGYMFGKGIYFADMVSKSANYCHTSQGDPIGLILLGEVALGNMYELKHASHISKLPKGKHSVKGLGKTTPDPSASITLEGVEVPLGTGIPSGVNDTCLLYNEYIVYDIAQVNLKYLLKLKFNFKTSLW

Row | Structure (SMILES) | pIC50 (PARP-1 enzyme [1]) | pIC50 (PARP-1 enzyme [2]; [3]) | pIC50 (PARP-1 enzyme [2]) | also measured
1 | O=c1[nH]c2ccc(OCCN3CCCCC3)cc2c2c1CCCN2 [Example 17, 9-[2-(Piperidine-1yl)ethoxy]-1,2,3,4-tetrahydrobenzo[h][1,6]naphthyridine-5(6H)-one dihydrochloride] | 5.79 | > 6.00 | 6.34 | 
2 | COCCOc1ccc2[nH]c(=O)c3c(c2c1)NCCC3 [Example 18, 9-(2-Methoxyethoxy)-1,2,3,4-tetrahydrobenzo[h][1,6]naphthyridine-5(6H)-one hydrochloride] | 5.43 | 5.82 |  | 
3 | CCOc1ccc2[nH]c(=O)c3c(c2c1)NCCC3 [Example 20, 9-Ethoxy-1,2,3,4-tetrahydrobenzo[h][1,6]naphthyridine-5(6H)-one hydrochloride] | 5.89 | 5.81 |  | 
4 | CN(C)CCc1ccc2c3c(c(=O)[nH]c2c1)CCCN3 [Example 32, 8-[2-(Dimethylamino)ethyl]-1,2,3,4-tetrahydrobenzo[h][1,6]naphthyridine-5(6H)-one dihydrochloride] | 5.50 | > 6.00 | 6.64 | 
5 | CN(C)c1ccc2c3c(c(=O)[nH]c2c1)CCCN3 [Example 37, 8-(Dimethylamino)-1,2,3,4-tetrahydrobenzo[h][1,6]naphthyridine-5(6H)-one hydrochloride] |  | < 5.40 |  | pIC50 (PARP-1 enzyme [1]; CHO-K1 cells, NAD(P)H released 4 hours after MMS treatment, read-out: PARP-1 Inhibitory activity IC50): 5.31
6 | CC(c1ccc2c3c(c(=O)[nH]c2c1)CCCN3)N(C)C (stereo not shown) [Example 38, 8-[1-(Dimethylamino)ethyl]-1,2,3,4-tetrahydrobenzo[h][1,6]naphthyridine-5(6H)-one dihydrochloride] | 6.85 | > 6.00 | 7.30 | 
7 | CN(C)Cc1ccc2c3c(c(=O)[nH]c2c1)CCCN3 [Example 41, 8-[(Dimethylamino)methyl]-1,2,3,4-tetrahydrobenzo[h][1,6]naphthyridine-5(6H)-one dihydrochloride] | 7.30 |  | 7.40 | 
8 | CCNCc1ccc2c3c(c(=O)[nH]c2c1)CCCN3 [Example 43, 8-[(Ethylamino)methyl]-1,2,3,4-tetrahydrobenzo[h][1,6]naphthyridine-5(6H)-one dihydrochloride] | 5.75 |  | 6.80 | 
9 | O=c1[nH]c2cc(CN3CCCC3)ccc2c2c1CCCN2 [Example 44, 8-(Pyrrolidine-1-ylmethyl)-1,2,3,4-tetrahydrobenzo[h][1,6]naphthyridine-5(6H)-one dihydrochloride] | 6.47 |  |  | pIC50 (PARP-1 enzyme [2]; dihydrochloride): 7.22
10 | CCN(C)Cc1ccc2c3c(c(=O)[nH]c2c1)CCCN3 [Example 47, 8-{[Ethyl(methyl)amino]methyl}-1,2,3,4-tetrahydrobenzo[h][1,6]naphthyridine-5(6H)-one dihydrochloride] | 6.60 |  | 7.15 | 
11 | O=c1[nH]c2cc(CN3CCCCC3)ccc2c2c1CCCN2 [Example 48, 8-(Piperidine-1-ylmethyl)-1,2,3,4-tetrahydrobenzo[h][1,6]naphthyridine-5(6H)-one dihydrochloride] | 6.37 |  | 6.89 | 
12 | CN(CCO)Cc1ccc2c3c(c(=O)[nH]c2c1)CCCN3 [Example 53, 8-{[(2-Hydroxyethyl)(methyl)amino]methyl}-1,2,3,4-tetrahydrobenzo[h][1,6]naphthyridine-5(6H)-one dihydrochloride] | 6.54 |  | 7.30 | 
13 | CCCN(C)Cc1ccc2c3c(c(=O)[nH]c2c1)CCCN3 [Example 56, 8-[(Methyl(propyl)amino)methyl]-1,2,3,4-tetrahydrobenzo[h][1,6]naphthyridine-5(6H)-one dihydrochloride] | 6.33 |  | 6.74 | 
14 | CN(C)Cc1ccc2c3c(c(=O)[nH]c2c1)CCCN3C [Example 66, 8-[(Dimethylamino)methyl]-1-methyl-1,2,3,4-tetrahydrobenzo[h][1,6]naphthyridine-5(6H)-one dihydrochloride] | 6.49 | > 6.00 | 7.05 | 
15 | COc1cc(CN2CC(C)OC(C)C2)cc2[nH]c(=O)c3c(c12)NCCC3 (stereo not shown) [Example 90, 8-[(2,6-Dimethylmorpholino)methyl]-10-methoxy-1,2,3,4-tetrahydrobenzo[h][1,6]naphthyridine-5(6H)-one dihydrochloride] |  |  | 6.11 | 
16 | COc1cc(CN(C)C2CCCC2)cc2[nH]c(=O)c3c(c12)NCCC3 [Example 92, 8-{[Cyclopentyl(methyl)amino]methyl}-10-methoxy-1,2,3,4-tetrahydrobenzo[h][1,6]naphthyridine-5(6H)-one dihydrochloride] |  |  | 6.72 | 
17 | COc1cc(CN(C)C(C)C)cc2[nH]c(=O)c3c(c12)NCCC3 [Example 93, 8-{[Isopropyl(methyl)amino]methyl}-10-methoxy-1,2,3,4-tetrahydrobenzo[h][1,6]naphthyridine-5(6H)-one dihydrochloride] |  |  | 6.85 | 
18 | COc1cc(CN(C)CCF)cc2[nH]c(=O)c3c(c12)NCCC3 [Example 94, 8-{[(2-Fluoroethyl)(methyl)amino]methyl}-10-methoxy-1,2,3,4-tetrahydrobenzo[h][1,6]naphthyridine-5(6H)-one dihydrochloride] |  |  | 6.77 | 
19 | O=c1[nH]c2cc(Cc3nnn[nH]3)ccc2c2c1CCCN2 [Example 95, 8-[(1H-tetrazole-5-yl)methyl]-1,2,3,4-tetrahydrobenzo[h][1,6]naphthyridine-5(6H)-one hydrochloride] |  |  | 6.31 | 
20 | COc1cc(CNN2CCOCC2)cc2[nH]c(=O)c3c(c12)NCCC3 [Example 96, 10-Methoxy-8-[(morpholinoamino)methyl]-1,2,3,4-tetrahydrobenzo[h][1,6]naphthyridine-5(6H)-one trihydrochloride] |  |  | 6.11 | 
21 | COc1cc(CN(C)N2CCOCC2)cc2[nH]c(=O)c3c(c12)NCCC3 [Example 97, 10-Methoxy-8-{[methyl(morpholino)amino]methyl}-1,2,3,4-tetrahydrobenzo[h][1,6]naphthyridine-5(6H)-one trihydrochloride] |  |  | 6.05 | 
22 | CCOc1cc(CN(C)C)cc2[nH]c(=O)c3c(c12)NCCC3 [Example 100, 8-[(Dimethylamino)methyl]-10-etoxy-1,2,3,4-tetrahydrobenzo[h][1,6]naphthyridine-5(6H)-one dihydrochloride] | 7.22 |  |  | 
23 | CCOc1cc(CN2CCCCC2)cc2[nH]c(=O)c3c(c12)NCCC3 [Example 102, 10-Ethoxy-8-(piperidine-1-ylmethyl)-1,2,3,4-tetrahydrobenzo[h][1,6]naphthyridine-5(6H)-one dihydrochloride] |  |  | 6.74 | 
24 | COc1cc(CO)cc2[nH]c(=O)c3c(c12)NCCC3 [Example 105, 8-(Hydroxymethyl)-10-methoxy-1,2,3,4-tetrahydrobenzo[h][1,6]naphthyridine-5(6H)-one hydrochloride] |  | 6.72 |  | 
25 | COc1cc(CNCCN2CCOCC2)cc2[nH]c(=O)c3c(c12)NCCC3 [Example 107, 10-Methoxy-8-[(2-morpholinoethylamino)methyl)-1,2,3,4-tetrahydrobenzo[h][1,6]naphthyridine-5(6H)-one trihydrochloride] |  |  | 7.15 | 
26 | NCc1ccc2c3c(c(=O)[nH]c2c1)CCCN3 [Example 112, 8-(Aminomethyl)-1,2,3,4-tetrahydrobenzo[h][1,6]naphthyridine-5 (6H)-one dihydrochloride] |  |  | 6.77 | 
27 | COc1cc(CN(C)C2CCOCC2)cc2[nH]c(=O)c3c(c12)NCCC3 [Example 115, 10-Methoxy-8-{[methyl(tetrahydro-2H-pyran-4-yl)amino]methyl}-1,2,3,4-tetrahydrobenzo[h][1,6]naphthyridine-5(6H)-one dihydrochloride] |  |  | 6.39 | 
28 | COCCOc1cc(CN(C)C)cc2[nH]c(=O)c3c(c12)NCCC3 [Example 116, 8-[(Dimethylamino)methyl]-10-(2-methoxyetoxy)-1,2,3,4-tetrahydrobenzo[h][1,6]naphthyridine-5(6H)-one dihydrochloride] |  | 6.74 |  | 

Source: patent publication US8815891B2, “Tricyclic derivative or pharmaceutically acceptable salts thereof, preparation method thereof, and pharmaceutical composition containing the same” (Je Il Pharmaceutical Co., Ltd., priority 2008, dated 2014)
